Source: patent publication US8192962B2, “Processes for detecting toxic substances” (Daikin Industries, Ltd., priority 2001, dated 2012)

Tested on: Mitochondria-located protein genes
Assay: DNA chip mRNA expression in yeast, mitochondria-located protein genes (Table 2)
Assay type: cell-based, Saccharomyces cerevisiae S288C
Conditions: cells incubated two hours with the chemical substance
Method in brief: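 S. cerevisiae S288C grown at 25° C in YPD were exposed in log phase for two hours to one toxic chemical at a growth-inhibiting, non-lethal concentration; untreated cells served as control. Poly(A) mRNA was reverse-transcribed with Cy3/Cy5-dUTP and hybridized to a whole-genome yeast DNA chip at 65° C for over 12 hours; values are fluorescence ratios versus untreated.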

Compound: CN(C)C(=S)SSC(=S)N(C)C [(10), Tetramethylthiuram disulfide]
- The level of expressed mRNA in the presence of chemical substance/The level of expressed mRNA in the absence of chemical substance (yeast gene YJR121W): 1.3
- The level of expressed mRNA in the presence of chemical substance/The level of expressed mRNA in the absence of chemical substance (yeast gene YKL003C): 2.2
- The level of expressed mRNA in the presence of chemical substance/The level of expressed mRNA in the absence of chemical substance (yeast gene YKL016C): 1.8
- The level of expressed mRNA in the presence of chemical substance/The level of expressed mRNA in the absence of chemical substance (yeast gene YKL141W): 0.5
- The level of expressed mRNA in the presence of chemical substance/The level of expressed mRNA in the absence of chemical substance (yeast gene YKL142W): 5.9
- The level of expressed mRNA in the presence of chemical substance/The level of expressed mRNA in the absence of chemical substance (yeast gene YKL148C): 1.7
- The level of expressed mRNA in the presence of chemical substance/The level of expressed mRNA in the absence of chemical substance (yeast gene YKL170W): 1.1
- The level of expressed mRNA in the presence of chemical substance/The level of expressed mRNA in the absence of chemical substance (yeast gene YKL194C): 1.4
- The level of expressed mRNA in the presence of chemical substance/The level of expressed mRNA in the absence of chemical substance (yeast gene YKR066C): 2.4
- The level of expressed mRNA in the presence of chemical substance/The level of expressed mRNA in the absence of chemical substance (yeast gene YLL041C): 0.8
- The level of expressed mRNA in the presence of chemical substance/The level of expressed mRNA in the absence of chemical substance (yeast gene YLR038C): 0.9
- The level of expressed mRNA in the presence of chemical substance/The level of expressed mRNA in the absence of chemical substance (yeast gene YLR259C): 2.6
- The level of expressed mRNA in the presence of chemical substance/The level of expressed mRNA in the absence of chemical substance (yeast gene YLR295C): 1.2
- The level of expressed mRNA in the presence of chemical substance/The level of expressed mRNA in the absence of chemical substance (yeast gene YLR304C): 2.2
- The level of expressed mRNA in the presence of chemical substance/The level of expressed mRNA in the absence of chemical substance (yeast gene YLR348C): 1.3
- The level of expressed mRNA in the presence of chemical substance/The level of expressed mRNA in the absence of chemical substance (yeast gene YLR395C): 0.9
- The level of expressed mRNA in the presence of chemical substance/The level of expressed mRNA in the absence of chemical substance (yeast gene YML054C): 1.8
- The level of expressed mRNA in the presence of chemical substance/The level of expressed mRNA in the absence of chemical substance (yeast gene YML120C): 1.5
- The level of expressed mRNA in the presence of chemical substance/The level of expressed mRNA in the absence of chemical substance (yeast gene YML129C): 2.2
- The level of expressed mRNA in the presence of chemical substance/The level of expressed mRNA in the absence of chemical substance (yeast gene YMR023C): 2.6
- The level of expressed mRNA in the presence of chemical substance/The level of expressed mRNA in the absence of chemical substance (yeast gene YMR035W): 1.6
- The level of expressed mRNA in the presence of chemical substance/The level of expressed mRNA in the absence of chemical substance (yeast gene YMR083W): 1.1
- The level of expressed mRNA in the presence of chemical substance/The level of expressed mRNA in the absence of chemical substance (yeast gene YMR089C): 2.5
- The level of expressed mRNA in the presence of chemical substance/The level of expressed mRNA in the absence of chemical substance (yeast gene YMR152W): 1.3
- The level of expressed mRNA in the presence of chemical substance/The level of expressed mRNA in the absence of chemical substance (yeast gene YMR203W): 1.2
- The level of expressed mRNA in the presence of chemical substance/The level of expressed mRNA in the absence of chemical substance (yeast gene YMR267W): 0.8
- The level of expressed mRNA in the presence of chemical substance/The level of expressed mRNA in the absence of chemical substance (yeast gene YNL055C): 1.0
- The level of expressed mRNA in the presence of chemical substance/The level of expressed mRNA in the absence of chemical substance (yeast gene YNL071W): 1.2
- The level of expressed mRNA in the presence of chemical substance/The level of expressed mRNA in the absence of chemical substance (yeast gene YNL073W): 1.8
- The level of expressed mRNA in the presence of chemical substance/The level of expressed mRNA in the absence of chemical substance (yeast gene YNL104C): 2.0
- The level of expressed mRNA in the presence of chemical substance/The level of expressed mRNA in the absence of chemical substance (yeast gene YNL256W): 0.6
- The level of expressed mRNA in the presence of chemical substance/The level of expressed mRNA in the absence of chemical substance (yeast gene YOL096C): 1.4
- The level of expressed mRNA in the presence of chemical substance/The level of expressed mRNA in the absence of chemical substance (yeast gene YOR020C): 2.6
- The level of expressed mRNA in the presence of chemical substance/The level of expressed mRNA in the absence of chemical substance (yeast gene YOR037W): 1.0
- The level of expressed mRNA in the presence of chemical substance/The level of expressed mRNA in the absence of chemical substance (yeast gene YOR100C): 2.6
- The level of expressed mRNA in the presence of chemical substance/The level of expressed mRNA in the absence of chemical substance (yeast gene YOR130C): 1.7
- The level of expressed mRNA in the presence of chemical substance/The level of expressed mRNA in the absence of chemical substance (yeast gene YOR142W): 1.5
- The level of expressed mRNA in the presence of chemical substance/The level of expressed mRNA in the absence of chemical substance (yeast gene YOR150W): 1.8
- The level of expressed mRNA in the presence of chemical substance/The level of expressed mRNA in the absence of chemical substance (yeast gene YOR176W): 0.5
- The level of expressed mRNA in the presence of chemical substance/The level of expressed mRNA in the absence of chemical substance (yeast gene YOR187W): 0.8
- The level of expressed mRNA in the presence of chemical substance/The level of expressed mRNA in the absence of chemical substance (yeast gene YOR316C): 2.0
- The level of expressed mRNA in the presence of chemical substance/The level of expressed mRNA in the absence of chemical substance (yeast gene YPL040C): 1.2
- The level of expressed mRNA in the presence of chemical substance/The level of expressed mRNA in the absence of chemical substance (yeast gene YPL134C): 0.8
- The level of expressed mRNA in the presence of chemical substance/The level of expressed mRNA in the absence of chemical substance (yeast gene YPL135W): 2.8
- The level of expressed mRNA in the presence of chemical substance/The level of expressed mRNA in the absence of chemical substance (yeast gene YPL215W): 1.2
- The level of expressed mRNA in the presence of chemical substance/The level of expressed mRNA in the absence of chemical substance (yeast gene YPL262W): 5.8
- The level of expressed mRNA in the presence of chemical substance/The level of expressed mRNA in the absence of chemical substance (yeast gene YPR024W): 1.7
- The level of expressed mRNA in the presence of chemical substance/The level of expressed mRNA in the absence of chemical substance (yeast gene YPR037C): 1.3
- The level of expressed mRNA in the presence of chemical substance/The level of expressed mRNA in the absence of chemical substance (yeast gene YPR047W): 1.9
- The level of expressed mRNA in the presence of chemical substance/The level of expressed mRNA in the absence of chemical substance (yeast gene YPR134W): 2.3
